Source: PubChem BioAssay (NCI)
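Each compound was tested at five concentrations against cells in 96-well plates for 48 hours. At the GI50, growth is halved. The concentration for full growth arrest is given as TGI.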

Key:
Test in all cases: growth of human tumour cells (NCI), 48 h; in the data active means GI50 below about 0.43 µM; inactive means the rest
SF-268 CNS = system: SF-268 CNS
SNB-75 CNS = system: SNB-75 CNS
SNB-19 CNS = system: SNB-19 CNS
RXF 393 renal = system: RXF 393 renal
LOX IMVI melanoma = system: LOX IMVI melanoma
SK-MEL-5 melanoma = system: SK-MEL-5 melanoma
T-47D breast = system: T-47D breast
SK-OV-3 ovarian = system: SK-OV-3 ovarian
RPMI-8226 leukemia = system: RPMI-8226 leukemia
KM12 colon = system: KM12 colon
HCT-116 colon = system: HCT-116 colon
NCI-H226 lung = system: NCI-H226 lung
OVCAR-5 ovarian = system: OVCAR-5 ovarian
786-0 renal = system: 786-0 renal
HCC-2998 colon = system: HCC-2998 colon
MDA-MB-435 = system: MDA-MB-435
CCRF-CEM leukemia = system: CCRF-CEM leukemia
OVCAR-8 ovarian = system: OVCAR-8 ovarian
MALME-3M melanoma = system: MALME-3M melanoma
HL-60(TB) leukemia = system: HL-60(TB) leukemia
SK-MEL-28 melanoma = system: SK-MEL-28 melanoma
NCI-H23 lung = system: NCI-H23 lung
ACHN renal = system: ACHN renal
TK-10 renal = system: TK-10 renal
COLO 205 colon = system: COLO 205 colon
HS 578T breast = system: HS 578T breast
K-562 leukemia = system: K-562 leukemia
MOLT-4 leukemia = system: MOLT-4 leukemia
SF-539 CNS = system: SF-539 CNS
NCI-H460 lung = system: NCI-H460 lung
SF-295 CNS = system: SF-295 CNS
HOP-92 NSCLC = system: HOP-92 NSCLC
SN12C renal = system: SN12C renal
SW-620 colon = system: SW-620 colon
EKVX NSCLC = system: EKVX NSCLC
BT-549 breast = system: BT-549 breast
M14 melanoma = system: M14 melanoma
UACC-62 melanoma = system: UACC-62 melanoma
OVCAR-4 ovarian = system: OVCAR-4 ovarian
HT29 colon = system: HT29 colon
SR leukemia = system: SR leukemia
NCI-H522 lung = system: NCI-H522 lung
MCF7 breast = system: MCF7 breast
SK-MEL-2 melanoma = system: SK-MEL-2 melanoma
PC-3 prostate = system: PC-3 prostate
MDA-MB-231 breast = system: MDA-MB-231 breast
U251 CNS = system: U251 CNS
UO-31 renal = system: UO-31 renal
HCT-15 colon = system: HCT-15 colon
IGROV1 ovarian = system: IGROV1 ovarian
HOP-62 NSCLC = system: HOP-62 NSCLC
A549 NSCLC = system: A549 NSCLC
UACC-257 melanoma = system: UACC-257 melanoma
DU-145 prostate = system: DU-145 prostate
NCI/ADR-RES ovarian = system: NCI/ADR-RES ovarian
CAKI-1 renal = system: CAKI-1 renal
OVCAR-3 ovarian = system: OVCAR-3 ovarian
A498 renal = system: A498 renal

COC(=O)Cc1ccc(Oc2nc3ccccc3nc2-c2cccs2)cc1
92.2 µM: TGI (SK-OV-3 ovarian)
> 100 µM: TGI (SF-268 CNS) | TGI (SNB-19 CNS) | TGI (LOX IMVI melanoma) | TGI (SK-MEL-5 melanoma) | TGI (T-47D breast) | TGI (RPMI-8226 leukemia) | TGI (KM12 colon) | TGI (HCT-116 colon) | TGI (OVCAR-5 ovarian) | TGI (786-0 renal) | TGI (HCC-2998 colon) | TGI (MDA-MB-435) | TGI (CCRF-CEM leukemia) | TGI (OVCAR-8 ovarian) | TGI (MALME-3M melanoma) | TGI (HL-60(TB) leukemia) | TGI (SK-MEL-28 melanoma) | TGI (NCI-H23 lung) | TGI (ACHN renal) | TGI (TK-10 renal) | TGI (COLO 205 colon) | TGI (HS 578T breast) | TGI (K-562 leukemia) | TGI (MOLT-4 leukemia) | TGI (SF-539 CNS) | TGI (NCI-H460 lung) | TGI (SF-295 CNS) | TGI (SN12C renal) | TGI (SW-620 colon) | TGI (EKVX NSCLC) | TGI (BT-549 breast) | TGI (M14 melanoma) | TGI (UACC-62 melanoma) | TGI (OVCAR-4 ovarian) | TGI (HT29 colon) | TGI (SR leukemia) | TGI (NCI-H522 lung) | TGI (MCF7 breast) | TGI (SK-MEL-2 melanoma) | TGI (PC-3 prostate) | TGI (MDA-MB-231 breast) | TGI (U251 CNS) | TGI (UO-31 renal) | TGI (HCT-15 colon) | TGI (IGROV1 ovarian) | TGI (HOP-62 NSCLC) | TGI (A549 NSCLC) | TGI (UACC-257 melanoma) | TGI (DU-145 prostate) | TGI (NCI/ADR-RES ovarian) | TGI (CAKI-1 renal) | TGI (OVCAR-3 ovarian)
48.5 µM: TGI (RXF 393 renal)
99.8 µM: TGI (NCI-H226 lung)
63.3 µM: TGI (HOP-92 NSCLC)
24.7 µM: TGI (SNB-75 CNS)

C=C(C)[C@@H]1C/C=C(\COC(=O)[C@H](OC(C)=O)C(NC(=O)c2ccccc2)c2ccccc2)CC[C@H]2O[C@]2(C)CC/C=C(\C)CC1 (stereo not given in full)
31.8 µM: TGI (HT29 colon)
49.4 µM: TGI (HS 578T breast)
45.4 µM: TGI (HCC-2998 colon) | TGI (BT-549 breast)
22.1 µM: TGI (MCF7 breast)
inactive: GI50 (SF-268 CNS) 18.2 µM | GI50 (SNB-75 CNS) 17.6 µM | GI50 (SNB-19 CNS) 27.8 µM | GI50 (LOX IMVI melanoma) 8.98 µM | GI50 (SK-MEL-5 melanoma) 11.8 µM | GI50 (T-47D breast) 23.1 µM | GI50 (SK-OV-3 ovarian) > 50 µM | GI50 (KM12 colon) 18.7 µM | GI50 (HCT-116 colon) 12.3 µM | GI50 (NCI-H226 lung) 21.7 µM | GI50 (OVCAR-5 ovarian) 32.1 µM | GI50 (786-0 renal) 18.5 µM | GI50 (HCC-2998 colon) 15.1 µM | GI50 (MDA-MB-435) 16.8 µM | GI50 (OVCAR-8 ovarian) 37.7 µM | GI50 (MALME-3M melanoma) 14.3 µM | GI50 (HL-60(TB) leukemia) 4.2 µM | GI50 (SK-MEL-28 melanoma) 16.6 µM | GI50 (NCI-H23 lung) 19.3 µM | GI50 (ACHN renal) 14.6 µM | GI50 (TK-10 renal) 18.8 µM | GI50 (COLO 205 colon) 11.2 µM | GI50 (HS 578T breast) 15.2 µM | GI50 (K-562 leukemia) 30.8 µM | GI50 (MOLT-4 leukemia) 17.6 µM | GI50 (A498 renal) 13.1 µM | GI50 (SF-539 CNS) 11.2 µM | GI50 (NCI-H460 lung) 15.5 µM | GI50 (SF-295 CNS) 13.2 µM | GI50 (HOP-92 NSCLC) 31.8 µM | GI50 (SN12C renal) 10.3 µM | GI50 (SW-620 colon) 16.8 µM | GI50 (EKVX NSCLC) 18.6 µM | GI50 (BT-549 breast) 12.9 µM | GI50 (M14 melanoma) 20.7 µM | GI50 (UACC-62 melanoma) 16.8 µM | GI50 (OVCAR-4 ovarian) 15.4 µM | GI50 (HT29 colon) 13.2 µM | GI50 (SR leukemia) 23.3 µM | GI50 (NCI-H522 lung) 12.1 µM | GI50 (MCF7 breast) 8.94 µM | GI50 (SK-MEL-2 melanoma) 16.7 µM | GI50 (PC-3 prostate) 13.3 µM | GI50 (MDA-MB-231 breast) 12 µM | GI50 (U251 CNS) 14.9 µM | GI50 (UO-31 renal) 20.6 µM | GI50 (HCT-15 colon) 12.4 µM | GI50 (IGROV1 ovarian) 17.7 µM | GI50 (HOP-62 NSCLC) 31.2 µM | GI50 (UACC-257 melanoma) 23.3 µM | GI50 (DU-145 prostate) 19.3 µM | GI50 (NCI/ADR-RES ovarian) 18.1 µM | GI50 (CAKI-1 renal) 8.64 µM | GI50 (OVCAR-3 ovarian) 12.2 µM
44.5 µM: TGI (A498 renal) | TGI (OVCAR-3 ovarian)
42.6 µM: TGI (MALME-3M melanoma)
19.3 µM: TGI (LOX IMVI melanoma)
49.7 µM: TGI (SW-620 colon)
23 µM: TGI (SN12C renal)
38.1 µM: TGI (HCT-116 colon)
> 50 µM: TGI (SF-268 CNS) | TGI (SNB-75 CNS) | TGI (SNB-19 CNS) | TGI (T-47D breast) | TGI (SK-OV-3 ovarian) | TGI (KM12 colon) | TGI (NCI-H226 lung) | TGI (OVCAR-5 ovarian) | TGI (786-0 renal) | TGI (MDA-MB-435) | TGI (OVCAR-8 ovarian) | TGI (HL-60(TB) leukemia) | TGI (SK-MEL-28 melanoma) | TGI (NCI-H23 lung) | TGI (ACHN renal) | TGI (TK-10 renal) | TGI (K-562 leukemia) | TGI (MOLT-4 leukemia) | TGI (NCI-H460 lung) | TGI (SF-295 CNS) | TGI (HOP-92 NSCLC) | TGI (EKVX NSCLC) | TGI (M14 melanoma) | TGI (UACC-62 melanoma) | TGI (OVCAR-4 ovarian) | TGI (SR leukemia) | TGI (NCI-H522 lung) | TGI (SK-MEL-2 melanoma) | TGI (PC-3 prostate) | TGI (MDA-MB-231 breast) | TGI (U251 CNS) | TGI (UO-31 renal) | TGI (HCT-15 colon) | TGI (IGROV1 ovarian) | TGI (HOP-62 NSCLC) | TGI (UACC-257 melanoma) | TGI (DU-145 prostate) | TGI (NCI/ADR-RES ovarian)
27.1 µM: TGI (SF-539 CNS)
17.8 µM: TGI (CAKI-1 renal)
28 µM: TGI (SK-MEL-5 melanoma)
25.8 µM: TGI (COLO 205 colon)
